According to patent US20250057864A1, “COMPOSITION FOR IMPROVING EXERCISE PERFORMANCE COMPRISING GYPENOSIDE COMPOUND AS ACTIVE INGREDIENT” (BTC CORPORATION, priority 2022, published 2025):

How the values were obtained:
ICR mice [1] = experiment: Blood biochemistry (serum analysis) at end of test; assay type: in vivo
From the text: After an acclimatization period of 1 week, healthy animals were selected and divided into 6 groups according to the randomized block design. […] Each test group consisted of 10 animals.
The contents of glucose, triglycerides (TG), total cholesterol (CHOL), LDL-cholesterol (LDL-CHOL), HDL-cholesterol (HDL-CHOL), blood urea nitrogen (BUN) and creatinine (CREA) in the serum, and the activities of creatine kinase (CK), lactate dehydrogenase (LDH), alanine aminotransferase (ALT), aspartate aminotransferase (AST) and alkaline phosphatase (ALP) were measured using a blood biochemistry analyzer (KoneLab 20 XT, Thermo Fisher Scientific).

[2] = tested on: TFam, CPT1-β, mtDNA in C2C12 cells; experiment: mRNA expression related with mitochondrial replication in C2C12 cells (real-time RT-PCR); assay type: cell-based, mice; conditions: C2C12, 0.36 μg/mL (Cr 5 μg/mL), control G1 = 1.00
Method: (§1) C2C12 cells were dispensed into a 6-well plate at 2×10^5 cells/well and stabilized for 24 hours. In order to investigate the effect of each test substance on muscle cell differentiation, each test substance was added to the myocyte differentiation medium. The cells were cultured for 4 days (mRNA analysis) or 7 days (protein analysis) after exchanging the cell culture medium with the myocyte differentiation medium treated with each test substance, as shown in Table 2.
(§2) C2C12 cells were dispensed into a 6-well plate at 2×10^5 cells/well and stabilized for 24 hours. The cells were cultured for 2 or 4 days after replacing the cell culture with a myocyte differentiation medium containing the test substance. After collecting the cells, total RNA was isolated using an RNeasy Plus Mini kit (QIAGEN), and quantified using a micro-volume spectrophotometer (BioSpec-nano, Shimadzu). RNAs with an OD260/280 value greater than 1.8 were used for experiment.
(§3) After obtaining cDNA from the total RNA (2 μg) using a HyperScript™ RT master mix kit (GeneAll Biotechnology), real-time PCR was performed using a Rotor-Gene 300 PCR kit (Corbett Research) and a Rotor-Gene™ SYBR Green kit (QIAGEN). Quantitative analysis of the gene expression was performed using the Rotor-Gene 6000 Series System Software program (Corbett Research).
The effect of the treatment of C2C12 cells with the test substances on the mRNA expression of mtDNA, Tfam and CPT-1β associated with mitochondrial replication was investigated.

[3] = tested on: MHC1, MHC7, MHC2A, MHC2B, PGC-1α, PKB, FNDC5 in C2C12 cells; experiment: mRNA expression of genes related with muscular strength type in C2C12 cells; assay type: cell-based, mice; conditions: C2C12, 0.36 μg/mL (Cr 5 μg/mL), control G1 = 1.00
Method: as §1, §2, §3
The effect of the compositions according to Examples 1 to 4 on the mRNA expression of MHC1, MHC7, MHC2A and MHC2B, which are responsible for muscular strength type, was investigated.
The result of investigating the effect of the compositions according to Examples 1 to 4 on the mRNA expression of PGC-1α, PKB and FNDC5 on the muscular strength type is shown in Table 10.

ICR mice [4] = experiment: Weight of liver and muscles; assay type: in vivo; conditions: 6 weeks
Method: After an acclimatization period of 1 week, healthy animals were selected and divided into 6 groups according to the randomized block design. The animals were divided into (G1) a non-exercise control group, (G2) a non-exercise+7 mg/kg body weight (BW) Example 1 group, (G3) a non-exercise+7 mg/kg BW Example 2 group, (G4) a non-exercise+7 mg/kg BW Example 3 group, (G5) a non-exercise+7 mg/kg BW Example 4 group, (G6) an exercise control group, (G7) an exercise+7 mg/kg BW Example 1 group, (G8) an exercise+7 mg/kg BW Example 2 group, (G9) an exercise+7 mg/kg BW Example 3 group, (G10) an exercise+7 mg/kg BW Example 4 group, and (G11) an exercise+75 mg/kg BW Cr dose group. Each test group consisted of 10 animals.
Before sacrificing, the experimental animal was anesthetized using an anesthetic prepared by dilution of tribromoethanol with tertiary amyl alcohol and blood was taken from the eye socket. The blood was placed in a serum-separating tube (Becton Dickinson) and left at room temperature for 30 minutes, centrifuged at 5,000 rpm for 10 minutes to separate the serum, and kept at −70° C. until analysis. After the blood sampling, the experimental animal was sacrificed and the liver and skeletal muscles [quadriceps femoris muscle (QF), gastrocnemius muscle (GA), soleus muscle (SOL), and extensor digitorum longus muscle (EDL)] were extracted. Their weight was measured after rinsing with cold physiological saline and removing excess water with filter paper. A portion of the soleus muscle (SOL) was fixed with 4% paraformaldehyde (PFA) and then embedded in paraffin for histoimmunological staining. Also, total RNA was isolated from a portion of the soleus muscle and subjected to real-time RT-PCR. Proteins were isolated from a portion of the gastrocnemius muscle (GA) and subjected to western blot. The remaining tissue was kept at −70° C. until analysis.
After the end of the test, the weight of the muscles and liver of the experimental animals was measured.
Since the body weight of the experimental animals was decreased due to exercise and the administration of the test substances, the relative weight of the muscles and liver per 100 g of body weight was calculated and shown in Table 23.

[5] = serum, treadmill exercise, 7 mg/kg BW (Cr 75 mg/kg BW), 6 weeks
[6] = treadmill exercise, 7 mg/kg BW (Cr 75 mg/kg BW)
[7] = serum, non-exercise, 7 mg/kg BW, 6 weeks

Row | Structure (SMILES) | CREA (ICR mice [1]; [5]) [mg/dL] | mRNA expression CPT1-β [2] | mRNA expression Tfam [2] | mRNA expression FNDC5 [3] | mRNA expression MHC1 [3] | mRNA expression MHC2A [3] | mRNA expression MHC2B [3] | mRNA expression MHC7 [3] | mRNA expression PGC-1α [3] | mRNA expression PKB [3] | Relative weight of extensor digitorum longus muscle (EDL) (ICR mice [4]; [6]) [g/100 g body weight] | Relative weight of gastrocnemius muscle (GA) (ICR mice [4]; [6]) | Relative weight of quadriceps femoris muscle (QF) (ICR mice [4]; [6]) [g/100 g body weight] | Relative weight of soleus muscle (SOL) (ICR mice [4]; [6]) [g/100 g body weight] | Weight of extensor digitorum longus muscle (EDL) (ICR mice [4]; [6]) [g] | Weight of gastrocnemius muscle (GA) (ICR mice [4]; [6]) [g] | Weight of quadriceps femoris muscle (QF) (ICR mice [4]; [6]) [g] | Weight of soleus muscle (SOL) (ICR mice [4]; [6]) [g] | further results
1 | CN(CC(=O)O)C(=N)N.O [Cr, Creatine monohydrate, reference compound] | 0.363 | 0.93 ± 0.20 | 0.48 ± 0.07 | 1.83 ± 0.47 | 4.50 ± 1.43 | 1.74 ± 0.22 | 1.10 ± 0.10 | 7.87 ± 2.66 | 1.54 ± 1.10 | 2.18 ± 0.51 | 0.059 ± 0.004 | 1.078 ± 0.028^ g/100 g body weight | 0.873 | 0.061 | 0.022 ± 0.001 | 0.409 ± 0.012 | 0.330 | 0.023 | BUN (ICR mice [1]; [5]): 7.84 ± 0.47 mg/dL; CK (ICR mice [1]; [5]): 521.5 U/L; LDH (ICR mice [1]; [5]): 1,169 U/L; Lactate (ICR mice [1]; [5]): 5.30 ± 0.41^++ μmol/L
2 | CC(C)=CCC[C@](C)(O)C1CC[C@]2(C)C1[C@H](O)CC1[C@@]3(C)C[C@@H](O)C(OC4OC(CO)C(O)C(O)C4OC4OC(CO)C(O)C(O)C4O)C(C)(C)C3CC[C@]12C (stereo partly drawn) [Example 1, Gypenoside L] | 0.348 | 1.83 ± 0.41 | 0.91 ± 0.10 | 2.97 ± 0.39 | 10.30 ± 1.75 | 1.54 ± 0.32 | 1.20 ± 0.12 | 1.80 ± 0.41 | 11.75 ± 3.82 | 3.04 ± 0.46 | 0.056 ± 0.003 | 1.122 ± 0.032^+ g/100 g body weight | 0.827 | 0.064 | 0.020 ± 0.001 | 0.406 ± 0.012 | 0.296 | 0.023 | BUN (ICR mice [1]; 7 mg/kg, 1008 h): 7.10 ± 0.40 mg/dL; CK (ICR mice [1]; 7 mg/kg, 1008 h): 471.7 U/L; LDH (ICR mice [1]; 7 mg/kg, 1008 h): 1,198 U/L; BUN (ICR mice [1]; [7]): 7.54 ± 0.47 mg/dL; CK (ICR mice [1]; [7]): 416.7 U/L; CREA (ICR mice [1]; [7]): 0.312 mg/dL; LDH (ICR mice [1]; [7]): 894 U/L; Lactate (ICR mice [1]; [7]): 5.15 ± 0.30 µmol/L; mRNA expression mtDNA [2]: 1.29 ± 0.41; Relative weight of extensor digitorum longus muscle (EDL) (ICR mice [4]; non-exercise, 7 mg/kg BW): 0.056 ± 0.002 g/100 g body weight; Relative weight of gastrocnemius muscle (GA) (ICR mice [4]; non-exercise, 7 mg/kg BW): 1.040 ± 0.036^ g/100 g body weight; Relative weight of quadriceps femoris muscle (QF) (ICR mice [4]; non-exercise, 7 mg/kg BW): 0.742 g/100 g body weight; Relative weight of soleus muscle (SOL) (ICR mice [4]; non-exercise, 7 mg/kg BW): 0.056 g/100 g body weight; Weight of extensor digitorum longus muscle (EDL) (ICR mice [4]; non-exercise, 7 mg/kg BW): 0.021 ± 0.001 g; Weight of gastrocnemius muscle (GA) (ICR mice [4]; non-exercise, 7 mg/kg BW): 0.392 ± 0.010 g; Weight of quadriceps femoris muscle (QF) (ICR mice [4]; non-exercise, 7 mg/kg BW): 0.282 g; Weight of soleus muscle (SOL) (ICR mice [4]; non-exercise, 7 mg/kg BW): 0.021 g
